Measured values: PMC10175918 (Communications Biology, 2023)
Where two headings read alike, the source gives them in different places.

What was measured:
Assay in all cases: TGFα-shedding assay-based GPCR screening with chimeric Gα subunit proteins
Assay type in all cases: cell-based
348 GPCRs [1] = target: T1, 348 GPCRs (Homo sapiens, UniProt P55085); conditions: 10µM, Favipiravir 100μM
T1 construct: expressed in transfected cells; host or cells: HEK293A
T1 sequence (P55085 26-397): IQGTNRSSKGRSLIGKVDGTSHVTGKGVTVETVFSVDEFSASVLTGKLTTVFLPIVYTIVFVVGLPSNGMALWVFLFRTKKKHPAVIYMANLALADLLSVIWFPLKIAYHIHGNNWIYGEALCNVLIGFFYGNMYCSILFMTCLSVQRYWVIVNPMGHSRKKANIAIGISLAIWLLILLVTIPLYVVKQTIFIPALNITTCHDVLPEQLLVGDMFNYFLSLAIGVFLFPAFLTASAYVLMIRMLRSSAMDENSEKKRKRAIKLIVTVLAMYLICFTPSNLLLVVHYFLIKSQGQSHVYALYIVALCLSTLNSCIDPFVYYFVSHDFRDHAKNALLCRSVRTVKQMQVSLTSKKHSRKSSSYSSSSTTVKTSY

348 GPCRs [2] = target: T2, 348 GPCRs (Homo sapiens, UniProt Q8IZF5)
T2 construct: expressed in transfected cells; host or cells: HEK293A
T2 sequence (Q8IZF5 26-1079): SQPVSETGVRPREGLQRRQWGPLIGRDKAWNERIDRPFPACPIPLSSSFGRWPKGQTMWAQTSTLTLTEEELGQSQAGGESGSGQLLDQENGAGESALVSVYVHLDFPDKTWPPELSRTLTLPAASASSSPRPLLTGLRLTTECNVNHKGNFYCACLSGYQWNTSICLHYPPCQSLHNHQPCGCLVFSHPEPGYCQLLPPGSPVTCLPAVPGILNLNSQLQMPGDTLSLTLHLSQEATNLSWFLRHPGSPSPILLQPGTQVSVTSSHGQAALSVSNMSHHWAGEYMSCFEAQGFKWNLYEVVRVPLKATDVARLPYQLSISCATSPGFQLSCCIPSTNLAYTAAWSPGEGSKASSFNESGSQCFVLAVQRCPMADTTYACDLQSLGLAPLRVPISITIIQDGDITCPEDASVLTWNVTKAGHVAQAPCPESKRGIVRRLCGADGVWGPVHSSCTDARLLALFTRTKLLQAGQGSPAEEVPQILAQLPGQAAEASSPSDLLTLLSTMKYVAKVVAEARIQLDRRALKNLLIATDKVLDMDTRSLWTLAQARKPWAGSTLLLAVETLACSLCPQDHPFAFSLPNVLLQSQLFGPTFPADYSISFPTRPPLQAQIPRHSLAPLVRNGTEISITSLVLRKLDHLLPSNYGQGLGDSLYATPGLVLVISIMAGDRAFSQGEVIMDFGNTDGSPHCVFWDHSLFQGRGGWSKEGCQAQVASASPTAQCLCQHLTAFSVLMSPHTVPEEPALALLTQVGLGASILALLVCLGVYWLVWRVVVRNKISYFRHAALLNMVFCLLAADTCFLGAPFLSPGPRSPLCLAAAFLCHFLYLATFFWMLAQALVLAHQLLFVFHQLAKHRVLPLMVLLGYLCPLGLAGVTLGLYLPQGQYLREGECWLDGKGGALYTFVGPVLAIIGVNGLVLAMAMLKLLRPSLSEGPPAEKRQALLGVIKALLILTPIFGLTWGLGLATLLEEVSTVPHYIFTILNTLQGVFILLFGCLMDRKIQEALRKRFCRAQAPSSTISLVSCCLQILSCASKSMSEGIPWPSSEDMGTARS

348 GPCRs [3] = target: T3, 348 GPCRs (Homo sapiens, UniProt P28222); conditions: 10µM, Favipiravir 100μM
T3 construct: expressed in transfected cells; host or cells: HEK293A

348 GPCRs [4] = target: T4, 348 GPCRs (Homo sapiens, UniProt Q9BZJ6)
T4 construct: expressed in transfected cells; host or cells: HEK293A

348 GPCRs [5] = target: T5, 348 GPCRs (Homo sapiens, UniProt Q9HBW9); conditions: 10µM, Favipiravir 100μM
T5 construct: expressed in transfected cells; host or cells: HEK293A
T5 sequence (Q9HBW9 20-690): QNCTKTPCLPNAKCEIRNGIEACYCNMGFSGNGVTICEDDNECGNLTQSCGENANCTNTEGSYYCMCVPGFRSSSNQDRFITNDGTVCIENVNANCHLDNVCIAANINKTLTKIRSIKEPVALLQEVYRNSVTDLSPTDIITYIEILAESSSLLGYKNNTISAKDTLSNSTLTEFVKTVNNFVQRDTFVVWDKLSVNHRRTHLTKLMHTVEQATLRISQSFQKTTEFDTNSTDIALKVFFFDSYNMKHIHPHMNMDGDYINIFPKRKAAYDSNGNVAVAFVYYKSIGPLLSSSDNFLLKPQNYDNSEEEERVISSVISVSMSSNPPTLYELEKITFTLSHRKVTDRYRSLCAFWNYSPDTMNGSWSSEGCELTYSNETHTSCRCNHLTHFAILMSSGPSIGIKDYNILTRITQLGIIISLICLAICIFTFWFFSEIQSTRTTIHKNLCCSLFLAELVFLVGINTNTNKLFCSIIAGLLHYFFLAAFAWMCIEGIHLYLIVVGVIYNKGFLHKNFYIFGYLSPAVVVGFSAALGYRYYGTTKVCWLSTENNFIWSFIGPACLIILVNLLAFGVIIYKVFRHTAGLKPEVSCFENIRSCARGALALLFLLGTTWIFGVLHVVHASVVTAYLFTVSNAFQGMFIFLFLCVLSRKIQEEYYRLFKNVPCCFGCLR

[6] = read-out: % GPCR activation compared to TPA, F2RL1 (coagulation factor II (thrombin) receptor-like 1)
[7] = read-out: % GPCR activation compared to TPA, GPCR GPR113 (G-protein-coupled receptor 113 (ADGRF3))
[8] = read-out: % GPCR activation compared to TPA, 5-HT1B (5-hydroxytryptamine receptor 1B)
[9] = read-out: % GPCR activation compared to TPA, GPCR GPR63 (G Protein-Coupled Receptor 63)
[10] = read-out: % GPCR activation compared to TPA, ELTD1 (EGF, latrophilin and seven transmembrane domain containing 1)
[11] = F2RL1 (coagulation factor II (thrombin) receptor-like 1), read-out: % GPCR activation compared to TPA
[12] = GPCR GPR113 (G-protein-coupled receptor 113 (ADGRF3)), read-out: % GPCR activation compared to TPA
[13] = 5-HT1B (5-hydroxytryptamine receptor 1B), read-out: % GPCR activation compared to TPA
[14] = GPCR GPR63 (G Protein-Coupled Receptor 63), read-out: % GPCR activation compared to TPA
[15] = ELTD1 (EGF, latrophilin and seven transmembrane domain containing 1), read-out: % GPCR activation compared to TPA

T4 sequence (Q9BZJ6 whole entry): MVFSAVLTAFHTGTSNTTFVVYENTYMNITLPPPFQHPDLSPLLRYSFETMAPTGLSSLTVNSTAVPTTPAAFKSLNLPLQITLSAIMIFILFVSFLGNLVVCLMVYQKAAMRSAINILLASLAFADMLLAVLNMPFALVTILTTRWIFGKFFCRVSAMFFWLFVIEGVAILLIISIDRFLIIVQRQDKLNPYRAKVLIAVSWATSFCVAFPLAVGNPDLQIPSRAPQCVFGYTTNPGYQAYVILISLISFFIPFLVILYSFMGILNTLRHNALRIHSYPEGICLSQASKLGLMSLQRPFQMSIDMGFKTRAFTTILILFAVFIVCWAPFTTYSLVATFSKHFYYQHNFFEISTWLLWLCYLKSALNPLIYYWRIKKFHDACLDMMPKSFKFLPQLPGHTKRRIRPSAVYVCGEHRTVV
T3 sequence (P28222 whole entry): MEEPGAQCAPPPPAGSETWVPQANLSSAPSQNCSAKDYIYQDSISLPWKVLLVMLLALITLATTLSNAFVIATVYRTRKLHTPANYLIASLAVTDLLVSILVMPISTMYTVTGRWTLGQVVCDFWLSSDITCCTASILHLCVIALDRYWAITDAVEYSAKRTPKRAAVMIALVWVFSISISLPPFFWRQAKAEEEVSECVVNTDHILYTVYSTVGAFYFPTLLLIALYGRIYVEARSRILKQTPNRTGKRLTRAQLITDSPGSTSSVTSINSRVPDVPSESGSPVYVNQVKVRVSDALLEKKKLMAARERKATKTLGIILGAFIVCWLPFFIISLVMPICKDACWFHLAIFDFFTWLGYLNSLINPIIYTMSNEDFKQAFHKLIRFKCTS

Structure (SMILES)	activation at 10 µM (348 GPCRs [1]; [11]) [%]	activation at 10 µM (348 GPCRs [2]; [12]) [%]	activation at 100 µM (348 GPCRs [3]; [13]) [%]	activation at 10 µM (348 GPCRs [4]; [14]) [%]	activation at 100 µM (348 GPCRs [5]; [15]) [%]	activation at 100 µM (348 GPCRs [2]; GPCR GPR113 (G-protein-coupled receptor 113 (ADGRF3)), 100μM, read-out: % GPCR activation compared to TPA) [%]	activation at 100 µM (348 GPCRs [4]; GPCR GPR63 (G Protein-Coupled Receptor 63), 100μM, read-out: % GPCR activation compared to TPA) [%]	activation at 10 µM (348 GPCRs [1]; [6]) [%]	activation at 10 µM (348 GPCRs [2]; [7]) [%]	activation at 100 µM (348 GPCRs [3]; [8]) [%]	activation at 10 µM (348 GPCRs [4]; [9]) [%]	activation at 100 µM (348 GPCRs [5]; [10]) [%]
CC(C)OC(=O)[C@H](C)N[P@](=O)(OC[C@H]1O[C@@H](n2ccc(=O)[nH]c2=O)[C@](C)(F)[C@@H]1O)Oc1ccccc1 [sofosbuvir]	–	–	–	–	–	–	–	0.0736	0.111	-1	1.22	0.08
NC(=O)c1nc(F)cnc1O [favipiravir, 6-fluoro-3-hydroxy-2-pyrazinecarboxamide]	-2.7	–	-3.2	–	-0.0903	-1.12	-0.607	–	–	–	–	–
CCC(CC)COC(=O)[C@H](C)N[P@](=O)(OC[C@H]1O[C@@](C#N)(c2ccc3c(N)ncnn23)[C@H](O)[C@@H]1O)Oc1ccccc1 [remdesivir]	–	–	–	–	–	–	–	-1.25	0.66	-0.255	1.1	0.0637

Continued, in another order:

activation at 10 µM (348 GPCRs [1]; [11]) [%]	activation at 10 µM (348 GPCRs [2]; [12]) [%]	activation at 100 µM (348 GPCRs [3]; [13]) [%]	activation at 10 µM (348 GPCRs [4]; [14]) [%]	activation at 100 µM (348 GPCRs [5]; [15]) [%]	activation at 100 µM (348 GPCRs [2]; GPCR GPR113 (G-protein-coupled receptor 113 (ADGRF3)), 100μM, read-out: % GPCR activation compared to TPA) [%]	activation at 100 µM (348 GPCRs [4]; GPCR GPR63 (G Protein-Coupled Receptor 63), 100μM, read-out: % GPCR activation compared to TPA) [%]	Structure (SMILES)	activation at 10 µM (348 GPCRs [1]; [6]) [%]	activation at 10 µM (348 GPCRs [2]; [7]) [%]	activation at 100 µM (348 GPCRs [3]; [8]) [%]	activation at 10 µM (348 GPCRs [4]; [9]) [%]	activation at 100 µM (348 GPCRs [5]; [10]) [%]
-1.8	-1.49	-0.835	-0.167	-0.0765	–	–	CC(C)C(=O)OC[C@H]1O[C@@H](n2ccc(NO)nc2=O)[C@H](O)[C@@H]1O [molnupiravir]	–	–	–	–	–
0.132	-1.08	-3.77	2.45	-0.971	–	–	N#C[C@@]1(c2ccc3c(N)ncnn23)O[C@H](CO)[C@@H](O)[C@H]1O [GS441524]	–	–	–	–	–
